Source: PMC7887755, “Structure–Activity Relationships of Pyrazolo[1,5-a]pyrimidin-7(4H)-ones as Antitubercular Agents” (ACS Infectious Diseases, 2021)
Values after ≈ are worked out from the molar mass of the structure shown. Values joined by “and” are separate entries in the source; they are usually repeats but may differ in a detail not shown here. Equal values may be shown once. Read-outs that look alike come from different tables or passages of the source.

What was measured:
Mtb H37Rv [1] = test: MIC under iron-depleted (DFO) or iron-replete (FeCl3) conditions; format: cell-based, Mycobacterium tuberculosis
Mtb H37Rv [2] = test: microbe, parasite or virus in culture; format: cell-based, Mycobacterium tuberculosis
in vitro = conditions: human, 24 h
[3] = test system: cell wall responsive iniBAC promoter (piniB-LUX reporter strain); format: cell-based, Mycobacterium tuberculosis
HepG2 cells = conditions: 24 h
Mtb H37Rv WT = test: microbe, parasite or virus in culture; format: cell-based; conditions: Mycobacterium tuberculosis
Mtb strain H37Rv = test: MIC against Mtb H37Rv under various media/carbon sources; format: cell-based; conditions: Mycobacterium tuberculosis
[4] = test system: DNA damage responsive recA and radA reporters; format: cell-based, Mycobacterium tuberculosis
[5] = Mycobacterium tuberculosis, H37RV, read-out: MIC in 7H9 ADC
[6] = Mycobacterium tuberculosis, H37RV, read-out: MIC in 7H9 GCas
[7] = Cytotoxicity (IC50) Galactose, HepG2 cells in DMEM/10% FBS with galactose
[8] = Cytotoxicity (IC50) Glucose, HepG2 cells in DMEM/10% FBS supplemented with glucose
[9] = read-out: Cytotoxicity (IC50) Galactose, HepG2 cells in DMEM/10% FBS with galactose
[10] = read-out: Cytotoxicity (IC50) Glucose, HepG2 cells in DMEM/10% FBS supplemented with glucose
[11] = pH 6, read-out: MIC nitrate/butyrate

Compound | MIC (Mtb H37Rv [2]; [5]) | MIC (Mtb H37Rv [2]; [6]) | IC50 (HepG2 cells; [9]) | IC50 (HepG2 cells; [10]) | MIC (Mtb H37Rv [2]; read-out: MIC in 7H9 ADC) | MIC (Mtb H37Rv [2]; read-out: MIC in 7H9 GCas) | further results
[Cl][Fe]([Cl])[Cl] [FeCl3] |  |  |  |  |  |  | MIC (Mtb H37Rv [1]; MIC of the iron-modulating additive itself): 500 µM
Cc1nn2c(=O)c(C(F)(F)F)c(-c3ccccc3)[nH]c2c1-c1ccccc1 [Compound P7, 2-Methyl-3,5-diphenyl-6-(trifluoromethyl)pyrazolo[1,5-a]pyrimidin-7(4H)-one] | 12.5 µM (≈ 4.62 µg/mL) | 3.12 µM (≈ 1.15 µg/mL) |  |  |  |  | 
CC/C(=C(\c1ccccc1)c1ccc(OCCN(C)C)cc1)c1ccccc1 [Tamoxifen, reference compound] |  |  |  |  |  |  | IC50 (in vitro; [7]): 5.93 µM; IC50 (in vitro; [8]): 4.18 µM
CC(C)=CCC/C(C)=C/CNCCNC1C2CC3CC(C2)CC1C3 (centres unmarked) [SQ109] |  |  |  |  |  |  | reporter gene assay cell wall [3]: yes
5-(Furan-3-yl)-2-methyl-3-phenylpyrazolo[1,5-a]pyrimidin-7(4H)-one [Compound P14] |  |  | > 100 µM | > 100 µM | 25.0 µM and 25 µM | 3.12 µM | 
5-(4-Fluorophenyl)-2-methyl-3-phenylpyrazolo[1,5-a]pyrimidin-7(4H)-one [Compound P18] |  |  | > 100 µM | > 100 µM | 6.25 µM | 1.56 µM | 
Nc1nn2c(=O)cc(-c3ccccc3)[nH]c2c1-c1ccccc1 [Compound P4, 2-Amino-3,5-diphenylpyrazolo[1,5-a]pyrimidin-7(4H)-one] | 28.1 µM (≈ 8.5 µg/mL) | 25 µM (≈ 7.56 µg/mL) |  |  |  | 25 µM (≈ 7.56 µg/mL) | 
5-Cyclohexyl-2-methyl-3-phenylpyrazolo[1,5-a]pyrimidin-7(4H)-one [Compound P11] |  |  | > 100 µM | > 100 µM | >100 µM | >100 µM | 
2-Methyl-3-phenyl-5-(pyrazin-2-yl)pyrazolo[1,5-a]pyrimidin-7(4H)-one [Compound P15] |  |  | > 100 µM | > 100 µM | 50.0 µM and 50 µM | 12.5 µM | 
O=c1cc(CC2CCCCC2)[nH]c2c(-c3ccc(Cl)cc3)cnn12 [Compound 2, 3-(4-Chlorophenyl)-5-(cyclohexylmethyl)pyrazolo[1,5-a]pyrimidin-7(4H)-one, reference compound] | 9.38 µM (≈ 3.21 µg/mL) | 0.78 µM (≈ 0.267 µg/mL) |  |  |  |  | MIC (Mtb H37Rv WT): 0.39 µM (≈ 0.133 µg/mL); increase in potency under iron-depleted conditions (MIC ratio) (Mtb H37Rv [1]): greater efficacy under iron-limited conditions; MIC (Mtb strain H37Rv; GAST/Fe, read-out: MIC GAST): 19 µM (≈ 6.49 µg/mL); MIC (Mtb strain H37Rv; [11]): 6.25 µM (≈ 2.14 µg/mL); MIC (Mtb strain H37Rv; read-out: MIC 7H9): 19 µM (≈ 6.49 µg/mL); MIC (Mtb strain H37Rv; read-out: MIC Chol): 12.5 µM (≈ 4.27 µg/mL); MIC (Mtb strain H37Rv; read-out: MIC GBSA/DBSA): 4.7 µM (≈ 1.61 µg/mL); reporter gene assay DNA damage [4]: no; reporter gene assay cell wall [3]: no
Cc1nn2c(=O)cc(CN3CCOCC3)[nH]c2c1-c1ccccc1 [Compound P10, 2-Methyl-5-(morpholinomethyl)-3-phenylpyrazolo[1,5-a]pyrimidin-7(4H)-one] | > 100 µM | > 100 µM |  |  |  |  | IC50 (in vitro; [7]): > 100 µM; IC50 (in vitro; [8]): > 100 µM
5-(3-Fluorophenyl)-2-methyl-3-phenylpyrazolo[1,5-a]pyrimidin-7(4H)-one [Compound P17] |  |  | 93.8 µM | > 100 µM | 6.25 µM | 1.56 µM | 
COc1cc(-c2ccccc2)nc2c(-c3ccccc3)c(C)nn12 [Compound P1, 7-Methoxy-2-methyl-3,5-diphenylpyrazolo[1,5-a]pyrimidine] | 100 µM (≈ 31.5 µg/mL) | > 100 µM |  |  |  |  | 
Cc1nn2c(=O)nc(-c3ccccc3)[nH]c2c1-c1ccccc1 [Compound P5, 7-Methyl-2,8-diphenylpyrazolo[1,5-a][1,3,5]triazin-4(1H)-one] | > 100 µM | 50 µM (≈ 15.1 µg/mL) |  |  |  | 50 µM (≈ 15.1 µg/mL) | 
COc1ccc(-c2cc(=O)n3nc(C)c(-c4ccc(F)cc4)c3[nH]2)cc1 [Compound 4, 3-(4-Fluorophenyl)-5-(4-methoxyphenyl)-2-methylpyrazolo[1,5-a]pyrimidin-7(4H)-one, reference compound] | 9.38 µM (≈ 3.28 µg/mL) | 3.12 µM (≈ 1.09 µg/mL) |  |  |  |  | MIC (Mtb H37Rv WT): 1.56 µM (≈ 0.545 µg/mL); increase in potency under iron-depleted conditions (MIC ratio) (Mtb H37Rv [1]): ≤ 2 fold; MIC (Mtb strain H37Rv; GAST/Fe, read-out: MIC GAST): 3.13 µM (≈ 1.09 µg/mL); MIC (Mtb strain H37Rv; [11]): 6.25 µM (≈ 2.18 µg/mL); MIC (Mtb strain H37Rv; read-out: MIC 7H9): 12.5 µM (≈ 4.37 µg/mL); MIC (Mtb strain H37Rv; read-out: MIC Chol): 12.5 µM (≈ 4.37 µg/mL); MIC (Mtb strain H37Rv; read-out: MIC GBSA/DBSA): 9.4 µM (≈ 3.28 µg/mL); reporter gene assay DNA damage [4]: no; reporter gene assay cell wall [3]: no
O=c1[nH]n2c(=O)cc(-c3ccccc3)[nH]c2c1-c1ccccc1 [Compound P3, 3,5-Diphenylpyrazolo[1,5-a]pyrimidine-2,7(1H,4H)-dione] | > 100 µM | > 100 µM |  |  |  |  | 
